From ChEMBL document CHEMBL4334438, “Discovery of novel glycogen synthase kinase-3α inhibitors: Structure-based virtual screening, preliminary SAR and biological evaluation for treatment of acute myeloid leukemia” (Eur J Med Chem, 2019)

How the values were obtained:
[1] = tested on: Tyrosine-protein kinase BTK (Homo sapiens), Q06187 [R28H]; experiment: Inhibition of recombinant full length human BTK R28H mutant assessed as residual activity at 1 uM using LSNLYHQGKFLQTFCGSPLYRRR as substrate incubated for 40 mins in presence of [gamma-33ATP] by scintillation counting based radiometry assay relative to control
Sequence of Tyrosine-protein kinase BTK (Homo sapiens), Q06187 [R28H] (Q06187 whole entry R28H): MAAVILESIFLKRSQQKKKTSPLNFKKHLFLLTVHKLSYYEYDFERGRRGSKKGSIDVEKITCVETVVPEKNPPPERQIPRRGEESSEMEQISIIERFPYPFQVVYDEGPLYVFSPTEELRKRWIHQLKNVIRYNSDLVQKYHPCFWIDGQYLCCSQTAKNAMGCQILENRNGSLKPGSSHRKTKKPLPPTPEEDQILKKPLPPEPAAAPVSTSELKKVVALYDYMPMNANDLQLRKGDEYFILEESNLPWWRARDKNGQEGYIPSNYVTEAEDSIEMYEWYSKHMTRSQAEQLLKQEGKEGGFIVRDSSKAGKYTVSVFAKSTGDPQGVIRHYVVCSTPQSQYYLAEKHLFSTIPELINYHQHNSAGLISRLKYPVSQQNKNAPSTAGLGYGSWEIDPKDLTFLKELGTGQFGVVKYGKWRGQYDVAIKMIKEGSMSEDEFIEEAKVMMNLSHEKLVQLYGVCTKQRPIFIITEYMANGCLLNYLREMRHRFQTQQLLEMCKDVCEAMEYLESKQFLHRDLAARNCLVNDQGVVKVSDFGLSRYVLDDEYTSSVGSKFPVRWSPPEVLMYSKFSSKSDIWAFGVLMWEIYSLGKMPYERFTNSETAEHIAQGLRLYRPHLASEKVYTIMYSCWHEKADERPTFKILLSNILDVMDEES

[2] = biological target: CDK12/Cyclin K (Homo sapiens) (UniProt O75909+Q9NYV4); experiment: Inhibition of recombinant full length human CDK12/cyclinK assessed as residual activity at 1 uM using RSRSRSRSRSRSRSR as substrate incubated for 120 mins in presence of [gamma-33ATP] by scintillation counting based radiometry assay relative to control; format: protein-complex assay
[3] = biological target: Serine/threonine-protein kinase Chk1 (Homo sapiens) (UniProt O14757); experiment: Inhibition of recombinant full length human CHK1 assessed as residual activity at 1 uM using KKKVSRSGLYRSP as substrate incubated for 40 mins in presence of [gamma-33ATP] by scintillation counting based radiometry assay relative to control
Sequence of Serine/threonine-protein kinase Chk1 (Homo sapiens) (O14757 whole entry): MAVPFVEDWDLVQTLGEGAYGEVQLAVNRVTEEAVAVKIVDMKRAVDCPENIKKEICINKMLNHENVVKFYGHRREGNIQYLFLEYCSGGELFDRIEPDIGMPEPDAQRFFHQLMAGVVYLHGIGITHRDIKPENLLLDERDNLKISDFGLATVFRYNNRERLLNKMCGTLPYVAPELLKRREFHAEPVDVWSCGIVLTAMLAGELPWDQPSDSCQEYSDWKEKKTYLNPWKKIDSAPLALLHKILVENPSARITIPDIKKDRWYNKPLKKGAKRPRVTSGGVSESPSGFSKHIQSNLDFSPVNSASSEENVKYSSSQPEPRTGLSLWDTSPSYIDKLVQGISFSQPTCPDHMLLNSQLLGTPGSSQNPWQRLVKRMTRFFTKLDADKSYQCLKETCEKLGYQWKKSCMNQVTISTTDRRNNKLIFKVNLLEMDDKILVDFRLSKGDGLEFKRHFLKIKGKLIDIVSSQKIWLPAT

[4] = tested on: Serine/threonine-protein kinase Chk2 (Homo sapiens), O96017 [I157T]; experiment: Inhibition of recombinant human CHK2 I157T mutant (5 to end residues) assessed as residual activity at 1 uM using KKKVSRSGLYRSPSMPENLNRPR as substrate incubated for 40 mins in presence of [gamma-33ATP] by scintillation counting based radiometry assay relative to control
[5] = tested on: Fibroblast growth factor receptor 2 (Homo sapiens), P21802 [N549H]; experiment: Inhibition of recombinant human FGFR2 N549H mutant (456 to 770 residues) assessed as residual activity at 1 uM using GGEEEEYFELVKKKK as substrate at 40 mins in presence of [gamma-33ATP] by scintillation counting based radiometry assay relative to control
[6] = biological target: G protein-coupled receptor kinase 5 (Homo sapiens) (UniProt P34947); experiment: Inhibition of recombinant full length human GRK5 assessed as residual activity at 1 uM using casein as substrate at 40 mins in presence of [gamma-33ATP] by scintillation counting based radiometry assay relative to control
Sequence of G protein-coupled receptor kinase 5 (Homo sapiens) (P34947 whole entry, looked up): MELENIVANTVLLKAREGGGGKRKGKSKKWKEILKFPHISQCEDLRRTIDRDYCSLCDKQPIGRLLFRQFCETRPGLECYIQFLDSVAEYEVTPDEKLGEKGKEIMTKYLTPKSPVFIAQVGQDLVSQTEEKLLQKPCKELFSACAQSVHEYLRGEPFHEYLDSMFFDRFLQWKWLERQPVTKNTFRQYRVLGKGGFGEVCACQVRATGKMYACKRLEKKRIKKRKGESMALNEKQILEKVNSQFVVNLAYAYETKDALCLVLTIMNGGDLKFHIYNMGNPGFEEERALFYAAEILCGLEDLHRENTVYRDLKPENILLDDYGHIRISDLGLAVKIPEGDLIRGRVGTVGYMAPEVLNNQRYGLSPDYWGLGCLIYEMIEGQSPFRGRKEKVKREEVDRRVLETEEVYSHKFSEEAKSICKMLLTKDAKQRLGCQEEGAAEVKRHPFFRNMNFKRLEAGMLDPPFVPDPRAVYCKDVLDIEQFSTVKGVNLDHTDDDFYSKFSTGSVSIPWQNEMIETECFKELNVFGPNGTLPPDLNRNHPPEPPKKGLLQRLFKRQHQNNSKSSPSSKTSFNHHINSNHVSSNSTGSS

[7] = biological target: Tyrosine-protein kinase JAK2 (Homo sapiens) (UniProt O60674); experiment: Inhibition of human JAK2 (808 to end residues) assessed as residual activity at 1 uM using KTFCGTPEYLAPEVRREPRILSEEEQEMFRDFDYIADWC as substrate after 40 mins by [gamma-33ATP] radiometric assay relative to control
[8] = biological target: Serine/threonine-protein kinase 10 (Homo sapiens) (UniProt O94804); experiment: Inhibition of recombinant human LOK (1 to 348 residues) assessed as residual activity at 1 uM using RLGRDKYKTLRQIRQ as substrate after 40 mins in presence of [gamma-33ATP] by scintillation counting based radiometry assay relative to control
[9] = tested on: Hepatocyte growth factor receptor (Homo sapiens), P08581 [Y1230D]; experiment: Inhibition of recombinant human MET A1209G/V1290L/Y1248D mutant (974 to end residues) assessed as residual activity at 1 uM using KKKGQEEEYVFIE as substrate incubated for 40 mins in presence of [gamma-33ATP by scintillation counting based radiometry assay relative to control
[10] = biological target: Misshapen-like kinase 1 (Homo sapiens) (UniProt Q8N4C8); experiment: Inhibition of recombinant human MINK (1 to 310 residues) assessed as residual activity at 1 uM using myelin basic protein as substrate measured after 40 mins in presence of [gamma33P]ATP by scintillation counting method
[11] = biological target: Dual specificity mitogen-activated protein kinase kinase 3 (Homo sapiens) (UniProt P46734); experiment: Inhibition of recombinant human MKK3 assessed as residual activity at 1 uM by scintillation counting based radiometry assay relative to control
Sequence of Dual specificity mitogen-activated protein kinase kinase 3 (Homo sapiens) (P46734 whole entry): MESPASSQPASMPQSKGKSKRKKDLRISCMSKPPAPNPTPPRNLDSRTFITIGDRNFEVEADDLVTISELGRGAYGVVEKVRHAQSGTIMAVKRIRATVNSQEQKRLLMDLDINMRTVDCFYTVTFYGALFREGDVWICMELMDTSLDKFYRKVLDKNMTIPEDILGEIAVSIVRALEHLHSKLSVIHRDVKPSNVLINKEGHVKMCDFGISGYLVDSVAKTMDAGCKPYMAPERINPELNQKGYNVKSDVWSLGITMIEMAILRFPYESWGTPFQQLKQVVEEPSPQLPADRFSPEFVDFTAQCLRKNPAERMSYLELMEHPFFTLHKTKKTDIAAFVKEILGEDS

[12] = biological target: Myosin light chain kinase 2, skeletal/cardiac muscle (Homo sapiens) (UniProt Q9H1R3); experiment: Inhibition of recombinant full-length human MYLK2 at 1 uM using KKLNRTLSFAEPG as substrate measured after 40 mins in presence of [gamma33P]ATP by scintillation counting method relative to control; set-up: scale not given: the % may be the effect or the level left
Sequence of Myosin light chain kinase 2, skeletal/cardiac muscle (Homo sapiens) (Q9H1R3 whole entry): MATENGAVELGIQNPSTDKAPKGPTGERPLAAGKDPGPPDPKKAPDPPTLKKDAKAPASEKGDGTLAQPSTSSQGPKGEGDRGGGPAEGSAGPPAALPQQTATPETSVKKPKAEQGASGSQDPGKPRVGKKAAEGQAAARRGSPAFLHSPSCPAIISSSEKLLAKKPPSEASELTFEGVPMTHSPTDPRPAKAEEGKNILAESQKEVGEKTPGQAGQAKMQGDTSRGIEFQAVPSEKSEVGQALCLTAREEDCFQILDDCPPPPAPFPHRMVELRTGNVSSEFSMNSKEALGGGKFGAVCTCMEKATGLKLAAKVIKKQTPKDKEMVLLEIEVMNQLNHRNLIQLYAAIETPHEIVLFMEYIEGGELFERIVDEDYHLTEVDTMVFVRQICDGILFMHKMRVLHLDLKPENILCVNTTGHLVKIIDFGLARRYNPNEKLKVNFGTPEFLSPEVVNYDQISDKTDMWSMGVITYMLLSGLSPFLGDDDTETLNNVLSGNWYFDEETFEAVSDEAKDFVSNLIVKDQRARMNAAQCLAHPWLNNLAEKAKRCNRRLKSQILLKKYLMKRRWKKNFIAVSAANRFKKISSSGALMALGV

[13] = biological target: Serine/threonine-protein kinase Nek6 (Homo sapiens) (UniProt Q9HC98); experiment: Inhibition of recombinant human NEK6 (2 to end residues) assessed as residual activity at 1 uM using FLAKSFGSPNRAYKK as substrate measured after 40 mins in presence of [gamma33P]ATP by scintillation counting method relative to control
Sequence of Serine/threonine-protein kinase Nek6 (Homo sapiens) (Q9HC98 whole entry): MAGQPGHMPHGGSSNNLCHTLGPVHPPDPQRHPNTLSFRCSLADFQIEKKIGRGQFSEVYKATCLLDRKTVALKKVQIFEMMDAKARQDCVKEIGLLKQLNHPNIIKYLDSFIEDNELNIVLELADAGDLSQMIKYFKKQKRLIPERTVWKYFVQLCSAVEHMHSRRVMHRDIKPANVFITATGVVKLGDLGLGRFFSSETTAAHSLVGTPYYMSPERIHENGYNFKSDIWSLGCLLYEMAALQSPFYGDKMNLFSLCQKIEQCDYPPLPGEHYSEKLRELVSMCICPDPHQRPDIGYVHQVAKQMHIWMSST

[14] = biological target: Serine/threonine-protein kinase PAK 5 (Homo sapiens) (UniProt Q9P286); experiment: Inhibition of recombinant human PAK5 (425 to end residues) assessed as residual activity at 1 uM using RRRLSFAEPG as substrate measured after 40 mins in presence of [gamma33P]ATP by scintillation counting method relative to control
[15] = biological target: Serine/threonine-protein kinase D3 (Homo sapiens) (UniProt O94806); experiment: Inhibition of recombinant full-length human PKD3 assessed as residual activity at 1 uM using KKLRRTLSVA as substrate measured after 40 mins in presence of [gamma33P]ATP by scintillation counting method relative to control
Sequence of Serine/threonine-protein kinase D3 (Homo sapiens) (O94806 whole entry): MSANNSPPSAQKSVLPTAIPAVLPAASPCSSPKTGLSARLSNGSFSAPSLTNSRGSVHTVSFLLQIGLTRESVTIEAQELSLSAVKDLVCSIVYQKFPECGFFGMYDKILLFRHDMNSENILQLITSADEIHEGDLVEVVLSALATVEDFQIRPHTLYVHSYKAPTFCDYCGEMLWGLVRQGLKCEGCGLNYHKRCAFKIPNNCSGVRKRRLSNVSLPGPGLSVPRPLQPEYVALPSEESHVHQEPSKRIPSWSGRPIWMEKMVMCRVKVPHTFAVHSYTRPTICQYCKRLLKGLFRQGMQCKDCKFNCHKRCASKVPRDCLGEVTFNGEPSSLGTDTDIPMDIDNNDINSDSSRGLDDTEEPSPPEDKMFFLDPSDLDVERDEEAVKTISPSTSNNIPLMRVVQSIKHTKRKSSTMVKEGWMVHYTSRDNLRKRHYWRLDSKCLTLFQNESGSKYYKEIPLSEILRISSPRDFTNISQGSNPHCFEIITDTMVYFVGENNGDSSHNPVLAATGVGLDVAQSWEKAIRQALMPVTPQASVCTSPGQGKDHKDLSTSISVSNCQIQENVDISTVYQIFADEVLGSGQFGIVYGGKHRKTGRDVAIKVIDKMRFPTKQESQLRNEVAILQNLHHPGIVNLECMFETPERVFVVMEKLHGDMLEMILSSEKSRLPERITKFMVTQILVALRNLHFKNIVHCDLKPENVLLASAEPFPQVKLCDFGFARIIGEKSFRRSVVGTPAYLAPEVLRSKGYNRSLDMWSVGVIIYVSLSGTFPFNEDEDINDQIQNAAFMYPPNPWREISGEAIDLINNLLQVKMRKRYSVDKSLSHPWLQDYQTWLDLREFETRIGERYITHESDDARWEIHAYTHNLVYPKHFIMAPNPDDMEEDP

[16] = organism: Homo sapiens; experiment: Inhibition of recombinant full length human PRAK R291E mutant assessed as residual activity at 1 uM using KKLRRTLSVA as substrate measured after 40 mins in presence of [gamma33P]ATP by scintillation counting method relative to control
[17] = tested on: Proto-oncogene tyrosine-protein kinase receptor Ret (Homo sapiens), P07949 [V804M]; experiment: Inhibition of recombinant human Ret V804M mutant (658 to end residues) assessed as residual activity at 1 uM using […] as substrate measured after 40 mins in presence of [gamma33P]ATP by scintillation counting method relative to control
Sequence of Proto-oncogene tyrosine-protein kinase receptor Ret (Homo sapiens), P07949 [V804M] (P07949 whole entry V804M): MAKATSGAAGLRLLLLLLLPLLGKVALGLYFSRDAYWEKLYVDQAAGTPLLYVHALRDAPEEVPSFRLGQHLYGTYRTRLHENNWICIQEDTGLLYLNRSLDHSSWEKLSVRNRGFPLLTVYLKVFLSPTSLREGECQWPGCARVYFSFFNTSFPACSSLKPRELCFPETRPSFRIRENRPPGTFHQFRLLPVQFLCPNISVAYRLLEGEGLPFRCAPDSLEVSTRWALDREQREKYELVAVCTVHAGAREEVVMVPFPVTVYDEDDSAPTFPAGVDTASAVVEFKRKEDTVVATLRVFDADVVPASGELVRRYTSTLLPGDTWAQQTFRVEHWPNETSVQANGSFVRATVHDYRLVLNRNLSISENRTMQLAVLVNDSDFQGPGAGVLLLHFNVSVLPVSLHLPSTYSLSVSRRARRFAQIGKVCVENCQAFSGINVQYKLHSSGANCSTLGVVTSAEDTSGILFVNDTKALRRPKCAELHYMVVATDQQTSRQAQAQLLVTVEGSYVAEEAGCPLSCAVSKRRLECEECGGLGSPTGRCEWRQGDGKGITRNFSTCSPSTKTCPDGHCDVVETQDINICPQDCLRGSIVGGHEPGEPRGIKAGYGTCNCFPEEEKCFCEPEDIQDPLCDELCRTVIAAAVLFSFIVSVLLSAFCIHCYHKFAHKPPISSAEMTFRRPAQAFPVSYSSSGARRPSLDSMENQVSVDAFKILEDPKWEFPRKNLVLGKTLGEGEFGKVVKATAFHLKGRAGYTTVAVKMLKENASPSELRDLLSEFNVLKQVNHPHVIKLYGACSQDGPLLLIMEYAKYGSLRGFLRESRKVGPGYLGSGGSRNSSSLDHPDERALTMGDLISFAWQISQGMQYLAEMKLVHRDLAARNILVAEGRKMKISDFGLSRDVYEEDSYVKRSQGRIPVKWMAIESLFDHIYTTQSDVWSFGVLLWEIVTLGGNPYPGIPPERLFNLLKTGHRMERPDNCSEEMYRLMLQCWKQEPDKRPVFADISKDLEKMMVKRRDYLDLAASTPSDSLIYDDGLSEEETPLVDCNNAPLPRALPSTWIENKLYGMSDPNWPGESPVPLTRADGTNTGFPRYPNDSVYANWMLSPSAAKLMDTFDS

[18] = biological target: Ribosomal protein S6 kinase alpha-1 (Homo sapiens) (UniProt Q15418); experiment: Inhibition of recombinant full length human Rsk1 assessed as residual activity at 1 uM using KKKNRTLSVA as substrate measured after 40 mins in presence of [gamma33P]ATP by scintillation counting method relative to control
[19] = biological target: Serine/threonine-protein kinase TAO1 (Homo sapiens) (UniProt Q7L7X3); experiment: Inhibition of human TAO1 (1 to 327 residues) assessed as residual activity at 1 uM using myelin basic protein as substrate measured after 40 mins in presence of [gamma33P]ATP by scintillation counting method relative to control
[20] = biological target: Serine/threonine-protein kinase tousled-like 1 (Homo sapiens) (UniProt Q9UKI8); experiment: Inhibition of recombinant full-length human TLK1 at 1 uM assessed as residual activity at 1 uM using casein as substrate measured after 40 mins in presence of [gamma33P]ATP by scintillation counting method relative to control
[21] = biological target: DNA-dependent protein kinase catalytic subunit (Homo sapiens) (UniProt P78527); experiment: Inhibition of recombinant full-length human DNA-PK at 1 uM assessed as residual activity at 1 uM using GST-cMyc-p53 as substrate measured after 40 mins by fluorescence assay

Row | Structure (SMILES) | Activity [1] | Activity [2] | Activity [3] | Activity [4] | Activity [5] | Activity [6] | Activity [7] | Activity [8] | Activity [9] | Activity [10] | Activity [11] | Activity [12] | Activity [13] | Activity [14] | Activity [15] | Activity [16] | Activity [17] | Activity [18] | Activity [19] | Activity [20] | also measured
1 | C=CCOC(=O)c1cc(-c2ccc(/C=C3/NC(=S)NC3=O)o2)ccc1Cl | 101% | 96% | 103% | 91% | 100% | 79% | 108% | 95% | 105% | 92% | 90% | 92% | 98% | 98% | 94% | 82% | 98% | 90% | 82% | 101% | Activity [21]: 107%
2 | N=C1NC(=O)/C(=C\c2ccc(-c3cccc([N+](=O)[O-])c3)o2)S1 | 94% | 98% | 102% | 85% | 96% | 100% | 102% | 95% | 92% | 85% | 83% | 98% | 102% | 103% | 89% | 71% | 95% | 105% | 52% | 110% | Activity [21]: 93%
